Experimental findings from patent publication US8754241B2, “Organic compound and electrochromic element having the same” (Canon Kabushiki Kaisha, priority 2012, dated 2014) are described below.

≈ marks a conversion by molar mass, not a printed value.

Holding throughout (format): physicochemical
Data set [1] in a line: ultraviolet-visible absorption spectrum in the neutral state, chloroform solution. How it is done:
The exemplary compound B-2 thus obtained was dissolved in chloroform, and the absorption spectrum of this solution measured by using an ultraviolet-visible spectrophotometer (V-560 manufactured by JASCO Corporation) is shown in FIG. 2.

Data set [2] can be described thus: oxidation-reduction cycle durability test (cyclic voltammetry). The note with it: dichloromethane; for change in oxidation peak current after 20,000 oxidation-reduction cycles (in words): 20,000 cycles; for Rate of Change in Oxidation Peak Current after Oxidation-Reduction Cycles for 20,000 Times: tetrabutylammonium perchlorate 0.1 mol/L, compound 1.0×10^−4 mol/L, initial current = 100%. How it is done:
For the durability measurement, glassy carbon was used for a working electrode, platinum was used for a counter electrode, silver was used for a reference electrode, and a dichloromethane solution was used in which tetrabutylammonium perchlorate (0.1 mol/L) as a supporting electrolyte and each of the above compounds (1.0×10^−4 mol/L) were dissolved.
In this solution, a square-wave potential program including constant potential oxidation at +0.8 V (B-2 and B-1) or +1.2 V (XX-4) (vs. Ag/Ag^+), each of which was equal to or more than the oxidation potential of the corresponding compound, for 3 seconds and subsequent constant potential reduction at 0 V (vs. Ag/Ag^+) for 3 seconds was repeatedly performed 20,000 times.
The changes in oxidation peak current in cyclic voltammetry (CV) measurement before and after the oxidation-reduction cycles for 20,000 times are shown in Table.
In this table, the “rate of change in oxidation peak current” indicates a value obtained by adding the change in current from the initial current (represented by 100%) to the initial current.

Data set [3] can be described thus: solubility in propylene carbonate solution of supporting electrolyte. The note with it: propylene carbonate solution of LiCO4 (0.1 mol/L), organic solvent or mixture. The method, then: In addition, as one example of the element solvent, the solubility of the compound D-11 in a propylene carbonate solution of LiCO4 (supporting electrolyte, 0.1 mol/L) was confirmed. According to the result, it was confirmed that this compound was dissolved at a concentration of 9 mmol/L and that the solubility thereof was higher than the solubility (6 mmol/L) of the compound B-2 of Example 1. The reason for this is believed that since having an ester group-containing phenyl group at the 3-position of DTT, the compound D-11 has an improved solubility into propylene carbonate, which is a polar solvent.

The nature of data set [4]: oxidation absorption spectrum / change in transmittance on constant potential oxidation. The note with it: for shape and wavelength of the oxidation absorption peak with concentration (π-dimer formation): 5.0×10^−4 or 1.7×10^−4 mol/L; for transmittance after oxidation / light absorption peak in the oxidized state: constant potential oxidation at +0.9 V (vs. Ag/Ag+); for transmittance after oxidation: at the absorption peak. The method, then: For the measurement of an oxidation absorption spectrum, platinum was used for a working electrode, platinum was used for a counter electrode, silver was used for a reference electrode, and a dichloromethane solution was used in which tetrabutylammonium perchlorate (0.1 mol/l) as a supporting electrolyte and each of the above compounds (5.0×10^−4 or 1.7×10^−4 mol/L) were dissolved.
In this solution, constant potential oxidation at +0.9 V (vs. Ag/Ag+), which was equal to or more than the oxidation potential of the compound, was performed, and the change in transmittance was measured.
The measurement of the oxidation absorption spectrum of the obtained compound D-11 was performed as in Example 4 using a dichloromethane solution in which tetrabutylammonium perchlorate (0.1 mol/L) and D-11 (5.0×10^−4 mol/L) were dissolved. […] This oxidation colored state was again returned to a colorless and transparent state by reduction, and the electrochromic characteristics in conformity with oxidation-reduction were confirmed. In addition, since the shape and the absorption wavelength of this oxidation absorption peak were not changed with the concentration, it was shown that as in Example 4, the formation of π-dimers was suppressed.

On to `COc1cccc(OC(C)C)c1-c1sc2c(sc3c(-c4ccccc4)c(-c4c(OC)cccc4OC(C)C)sc32)c1-c1ccccc1` [B-2], for which, in data set [1], the “absorption in the visible light region” value was “no absorption over the entire visible light region” and the “λ max at which the absorption peak showed the maximum intensity” value (“λ max” below) amounted to 307.5 nm. Moreover, in data set [2], the “change in oxidation peak current after 20,000 oxidation-reduction cycles (in words)” value is reported as “hardly observed” and the “Rate of Change in Oxidation Peak Current after Oxidation-Reduction Cycles for 20,000 Times” value was found to be 101%. In data set [3], the solubility was 6 mM (≈ 4060 µg/mL). Besides, the “shape and wavelength of the oxidation absorption peak with concentration (π-dimer formation)” value (“shape and wavelength” for short) in data set [4] is on record as “not changed”.
With `COC(=O)c1ccc(-c2c(-c3c(OC)cccc3OC(C)C)sc3c2sc2c(-c4ccc(C(=O)OC)cc4)c(-c4c(OC)cccc4OC(C)C)sc23)cc1` [D-11], in data set [1], the “absorption in the visible light region” value is on record as “no absorption over the entire visible light region” and the “λ max” value was determined as 316.0 nm. Further, the solubility in data set [3] was determined as 9 mM (≈ 7140 µg/mL). For the same molecule, in data set [4], the “shape and wavelength” value is “not changed”; the transmittance after oxidation worked out at 36.3%. Also, the “light absorption peak in the oxidized state” value in data set [4] (dichloromethane) came out at 541.5 nm.
As to `CC(C)(C)c1cc2sc3cc(C(C)(C)C)sc3c2s1` [XX-4, reference compound], in data set [2], the “change in oxidation peak current after 20,000 oxidation-reduction cycles (in words)” value is “decreased” and the “Rate of Change in Oxidation Peak Current after Oxidation-Reduction Cycles for 20,000 Times” value was found to be 81%.
For the molecule `COc1cccc(OC)c1-c1sc2c(sc3c(-c4ccccc4)c(-c4c(OC)cccc4OC)sc32)c1-c1ccccc1` [B-1], in data set [1], the “absorption in the visible light region” value is on record as “no absorption over the entire visible light region” and the “λ max” value amounted to 309.5 nm. In data set [2], the “change in oxidation peak current after 20,000 oxidation-reduction cycles (in words)” value is “hardly observed” and the “Rate of Change in Oxidation Peak Current after Oxidation-Reduction Cycles for 20,000 Times” value was 98%. Besides, in data set [4], the “shape and wavelength” value was “not changed”; the transmittance after oxidation was 20.3%. The “light absorption peak in the oxidized state” value in data set [4] (dichloromethane) is on record as “approximately 510 nm”. In addition, the “transmittance in the bleached state before oxidation” value in data set [4] (over the entire visible light region, dichloromethane) is “approximately 100%”.

By solubility is commonly meant the concentration that dissolves in the medium under given conditions.
